Measurements as given in patent US20130296228A1, “EFFLUX PUMP INHIBITORS” (priority 2010, published 2013).
Read-outs that look alike come from different tables or passages of the source.

Tests used:
MDR P. aeruginosa = assay: Enhanced killing: viable count over time; assay type: cell-based; settings: for killing effect of the agent individually: quinolone arginine salt 8 μg/ml, ceftazidime 8 and 16 μg/ml
Protocol: Table 4 results of efflux pump inhibition based cidal synergy between S-(−)-9-Fluoro-8-(4-hydroxy-piperidin-1-yl)-5-methyl-6,7-dihydro-1-oxo-1H,5H-benzo[i,j]quinolizine-2-carboxylic acid L-arginine salt tetrahydrate nd ceftazidime. Potent cidal synergy is observed between S-(−)-9-Fluoro-8-(4-hydroxy-piperidin-1-yl)-5-methyl-6,7-dihydro-1-oxo-1H,5H-benzo[i,j]quinolizine-2-carboxylic acid L-arginine salt tetrahydrate (concentration, 8 μg/ml) and ceftazidime (concentration, 8 and 16 μg/ml). These concentrations are at least 4 times lower than their MIC. […] Thus the efflux pump inhibition based synergy is not just growth inhibitory but also, most importantly, imparts extensive killing of the pathogen.

outer membrane porins = settings: Bacalum et al. 2009; cited from earlier work
P. aeruginosa 23587 [1] = assay: Survival of high density inoculation in MHA medium; assay type: cell-based; settings: high density inoculation 2-5 × 10^9 CFU/ml
[2] = test system: MDR clinical isolate of P. aeruginosa 2301; assay: Systemic infection in mice, % survival; assay type: in vivo; settings: for % survival: mice; for protection of infected animals, agent individually: quinolone arginine salt 50 mg/kg, ceftazidime 300 mg/kg
P. aeruginosa 23587 [3] = assay: Diameter of zone of inhibition of antimicrobial agents with or without efflux pump inhibitor; assay type: cell-based
Excerpt: Since RND efflux pumps operate by utilizing energy in […], metabolic inhibitor, sodium azide brings about MDR RND pump inhibition by causing energy deprivation.

P. aeruginosa 2301 [4] = assay: Survival of high density inoculation in MHA medium; assay type: cell-based; settings: high density inoculation 2-5 × 10^9 CFU/ml; 20 mcg/ml in MHA medium
Excerpt: In a most surprising manner, the combination of ceftazidime and azithromycin and tigecycline respectively brought about more than 7 log reduction in the bacterial count as compared to individual effects in highly resistant Pseudomonas strain. Moreover in a very unusual and surprising manner this tremendous bactericidal effect is taking place at concentrations much below than their individual inhibitory concentrations. […] It is also likely that ceftazidime interacts with outer membrane porins and acts as a porin modulator. Bacalum et al. have shown that ceftazidime binds to outer membrane porins with high affinity (Bacalum et al. Romanian. J. Biophys., 19, 105-116, 2009).

[5] = test system: highly resistant P. aeruginosa strains; assay: MIC; assay type: cell-based; settings: highly resistant P. aeruginosa strains used for infecting animals
P. aeruginosa 2301 [6] = assay: Diameter of zone of inhibition of antimicrobial agents with or without efflux pump inhibitor; assay type: cell-based; settings: for Diameter of zone of inhibition: P. aeruginosa 2301

CC(C)(O/N=C(\C(=O)N[C@@H]1C(=O)N2C(C(=O)[O-])=C(C[n+]3ccccc3)CS[C@H]12)c1csc(N)n1)C(=O)O [Ceftazidime, ceftazidime]
viable count (MDR P. aeruginosa; 8 μg/ml, 0 h): 6.11 Log CFU/ ml
viable count (MDR P. aeruginosa; 8 μg/ml, 24 h): 8.64 Log CFU/ ml
viable count (MDR P. aeruginosa; 8 μg/ml, 48 h): 9.3 Log CFU/ ml
viable count (MDR P. aeruginosa; 16 μg/ml, 0 h): 6.11 Log CFU/ ml
viable count (MDR P. aeruginosa; 16 μg/ml, 24 h): 5.30 Log CFU/ ml
viable count (MDR P. aeruginosa; 16 μg/ml, 48 h): 9.2 Log CFU/ ml
killing effect of the agent individually (MDR P. aeruginosa): ineffective
binding to outer membrane porins (outer membrane porins): high affinity
CFU/ml at 48 h (P. aeruginosa 23587 [1]; 64 mcg/ml in MHA medium): >5 × 10^9 CFU/ml
% survival ([2]; Table 5, 300 mg/kg BID × 1 day, Subcutaneous): 16.6%
% survival ([2]; Table 7, 100 mg/kg BID × 1 day, Oral): 16.6%
% survival ([2]; Table 7, 200 mg/kg BID × 1 day, Oral): 16.6%
protection of infected animals, agent individually [2]: could not protect
inhibition of MDR RND efflux pumps, concluded from potentiation (P. aeruginosa 23587 [3]; clinical isolates of P. aeruginosa): inhibit RND pumps
CFU/ml at 48 h (P. aeruginosa 2301 [4]): >5 × 10^9 CFU/ml
MIC ([5]; Pseudomonas aeruginosa, read-out: MIC): > 32 mg/L

C[C@H]1CCc2c(N3CCC(O)CC3)c(F)cc3c(=O)c(C(=O)O)cn1c23.N=C(N)NCCC[C@H](N)C(=O)O.O.O.O.O [S-(−)-9-Fluoro-8-(4-hydroxy-piperidin-1-yl)-5-methyl-6,7-dihydro-1-oxo-1H,5H-benzo[i,j]quinolizine-2-carboxylic acid L-arginine salt tetrahydrate]
change of activity in the presence of cefepime and ceftazidime (P. aeruginosa 2301 [6]; Example 6): significant potentiation
Diameter of zone of inhibition (P. aeruginosa 2301 [6]; Table 1, +PAN (20 μg/ml), 4 μg/well): 25 m.m.
Diameter of zone of inhibition (P. aeruginosa 2301 [6]; Table 1, +PAN (20 μg/ml), 8 μg/well): 32 m.m.
Diameter of zone of inhibition (P. aeruginosa 2301 [6]; Table 1, +PAN (20 μg/ml), 16 μg/well): 38 m.m.
Diameter of zone of inhibition (P. aeruginosa 2301 [6]; Table 1, Control, 4 μg/well): 15.5 m.m.
Diameter of zone of inhibition (P. aeruginosa 2301 [6]; Table 1, Control, 8 μg/well): 20 m.m.
Diameter of zone of inhibition (P. aeruginosa 2301 [6]; Table 1, Control, 16 μg/well): 23.5 m.m.
Diameter of zone of inhibition (P. aeruginosa 2301 [6]; Table 6, +Cefepime (2 μg/ml), 8 μg/Well): 12 m.m.
Diameter of zone of inhibition (P. aeruginosa 2301 [6]; Table 6, +Cefepime (2 μg/ml), 16 μg/Well): 18 m.m.
Diameter of zone of inhibition (P. aeruginosa 2301 [6]; Table 6, +Cefepime (2 μg/ml), 32 μg/Well): 24 m.m.
Diameter of zone of inhibition (P. aeruginosa 2301 [6]; Table 6, +Ceftazidime (0.5 μg/ml), 8 μg/Well): 20 m.m.
Diameter of zone of inhibition (P. aeruginosa 2301 [6]; Table 6, +Ceftazidime (0.5 μg/ml), 16 μg/Well): 25 m.m.
Diameter of zone of inhibition (P. aeruginosa 2301 [6]; Table 6, +Ceftazidime (0.5 μg/ml), 32 μg/Well): 33 m.m.
Diameter of zone of inhibition (P. aeruginosa 2301 [6]; Table 6, Control, 8 μg/Well): 9 m.m.
Diameter of zone of inhibition (P. aeruginosa 2301 [6]; Table 6, Control, 16 μg/Well): 14.5 m.m.
Diameter of zone of inhibition (P. aeruginosa 2301 [6]; Table 6, Control, 32 μg/Well): 19.5 m.m.
viable count (MDR P. aeruginosa; 8 μg/ml, 0 h): 6.11 Log CFU/ ml
viable count (MDR P. aeruginosa; 8 μg/ml, 24 h): 8.64 Log CFU/ ml
viable count (MDR P. aeruginosa; 8 μg/ml, 48 h): 9.4 Log CFU/ ml
viable count (MDR P. aeruginosa; 16 μg/ml, 0 h): 6.11 Log CFU/ ml
viable count (MDR P. aeruginosa; 16 μg/ml, 24 h): 4.30 Log CFU/ ml
viable count (MDR P. aeruginosa; 16 μg/ml, 48 h): <3.0 Log CFU/ ml
killing effect of the agent individually (MDR P. aeruginosa): ineffective
CFU/ml at 48 h (P. aeruginosa 23587 [1]; 32 mcg/ml in MHA medium): >5 × 10^9 CFU/ml
% survival ([2]; Table 5, 50 mg/kg BID × 1 day, Subcutaneous): 0%
% survival ([2]; Table 5, 75 mg/kg BID × 1 day, Subcutaneous): 33.3%
% survival ([2]; Table 5, 100 mg/kg BID × 1 day, Subcutaneous): 100%
protection of infected animals, agent individually [2]: could not protect
change of activity on addition of sodium azide (P. aeruginosa 23587 [3]): potentiated
change of activity in the presence of cefepime and ceftazidime (P. aeruginosa 23587 [3]; Example 3): significant potentiation
Diameter of zone of inhibition (P. aeruginosa 23587 [3]; Table 1, P. aeruginosa 23587, +PAN (20 μg/ml), 4 μg/well): 30 m.m.
Diameter of zone of inhibition (P. aeruginosa 23587 [3]; Table 1, P. aeruginosa 23587, +PAN (20 μg/ml), 8 μg/well): 34 m.m.
Diameter of zone of inhibition (P. aeruginosa 23587 [3]; Table 1, P. aeruginosa 23587, +PAN (20 μg/ml), 16 μg/well): 35 m.m.
Diameter of zone of inhibition (P. aeruginosa 23587 [3]; Table 1, P. aeruginosa 23587, Control, 4 μg/well): Nil
Diameter of zone of inhibition (P. aeruginosa 23587 [3]; Table 1, P. aeruginosa 23587, Control, 8 μg/well): 12 m.m.
Diameter of zone of inhibition (P. aeruginosa 23587 [3]; Table 1, P. aeruginosa 23587, Control, 16 μg/well): 15 m.m.
Diameter of zone of inhibition (P. aeruginosa 23587 [3]; Table 2, P. aeruginosa (23587), +Reserpine (25 μg/ml), 8 μg/well): Nil
Diameter of zone of inhibition (P. aeruginosa 23587 [3]; Table 2, P. aeruginosa (23587), +Reserpine (25 μg/ml), 16 μg/well): 11 m.m.
Diameter of zone of inhibition (P. aeruginosa 23587 [3]; Table 2, P. aeruginosa (23587), +Reserpine (25 μg/ml), 32 μg/well): 15 m.m.
Diameter of zone of inhibition (P. aeruginosa 23587 [3]; Table 2, P. aeruginosa (23587), +sodium azide (10 μg/ml), 8 μg/well): 12 m.m.
Diameter of zone of inhibition (P. aeruginosa 23587 [3]; Table 2, P. aeruginosa (23587), +sodium azide (10 μg/ml), 16 μg/well): 15 m.m.
Diameter of zone of inhibition (P. aeruginosa 23587 [3]; Table 2, P. aeruginosa (23587), +sodium azide (10 μg/ml), 32 μg/well): 20 m.m.
Diameter of zone of inhibition (P. aeruginosa 23587 [3]; Table 2, P. aeruginosa (23587), Control, 8 μg/well): Nil
Diameter of zone of inhibition (P. aeruginosa 23587 [3]; Table 2, P. aeruginosa (23587), Control, 16 μg/well): 11 m.m.
Diameter of zone of inhibition (P. aeruginosa 23587 [3]; Table 2, P. aeruginosa (23587), Control, 32 μg/well): 15 m.m.
Diameter of zone of inhibition (P. aeruginosa 23587 [3]; Table 3, P. aeruginosa 23587, +Cefepime (1 μg/ml), 8 μg/Well): 12 m.m.
Diameter of zone of inhibition (P. aeruginosa 23587 [3]; Table 3, P. aeruginosa 23587, +Cefepime (1 μg/ml), 16 μg/Well): 18 m.m.
Diameter of zone of inhibition (P. aeruginosa 23587 [3]; Table 3, P. aeruginosa 23587, +Cefepime (1 μg/ml), 32 μg/Well): 24 m.m.
Diameter of zone of inhibition (P. aeruginosa 23587 [3]; Table 3, P. aeruginosa 23587, +Ceftazidime (1 μg/ml), 8 μg/Well): 20 m.m.
Diameter of zone of inhibition (P. aeruginosa 23587 [3]; Table 3, P. aeruginosa 23587, +Ceftazidime (1 μg/ml), 16 μg/Well): 25 m.m.
Diameter of zone of inhibition (P. aeruginosa 23587 [3]; Table 3, P. aeruginosa 23587, +Ceftazidime (1 μg/ml), 32 μg/Well): 33 m.m.
Diameter of zone of inhibition (P. aeruginosa 23587 [3]; Table 3, P. aeruginosa 23587, Control, 8 μg/Well): 9 m.m.
Diameter of zone of inhibition (P. aeruginosa 23587 [3]; Table 3, P. aeruginosa 23587, Control, 16 μg/Well): 14.5 m.m.
Diameter of zone of inhibition (P. aeruginosa 23587 [3]; Table 3, P. aeruginosa 23587, Control, 32 μg/Well): 19.5 m.m.
change of activity in the presence of PAN (P. aeruginosa 23587 [3]; clinical isolates P. aeruginosa 23587 and P. aeruginosa 2301): Synergistic enhancement
MIC [5]: 16 mg/L
